Species: Rattus norvegicus
Assay: Open TG-GATES - Regimen: Single
Format: toxicity, organism-based, Sprague-Dawley
Set-up: regimen Single, gender Male, age 6 weeks
Conditions: in vivo, po, 100 mg/kg, route gavage, dose level Low; for APTT / Bas / Eos / Fbg / Hb / Ht / Lym / MCH / MCHC / MCV / Mono / Neu / PT / Plat / RBC / Ret / WBC: tissue Blood; for KIDNEY_L / KIDNEY_R / KIDNEY_TOTAL: tissue Kidney; for LIVER: tissue Liver; for A/G / ALP / ALT / AST / BUN / CRE / Ca / Cl / DBIL / GLC / IP / K / LDH / Na / PL / RALB / TBIL / TC / TG / TP / gamma-GTP: tissue Plasma

Work on `COC1=CC(=O)C[C@@H](C)[C@]12Oc1c(Cl)c(OC)cc(OC)c1C2=O` [GRISEOFULVIN] yielded a TERMINAL_BW (3 h) of 211.4 g, an APTT (3 h) of 18.7 s and a Bas (3 h) of 0%. For the same molecule, the Eos (3 h) was 0.8%, the Fbg (3 h) was 213 mg/dL and the Hb (3 h) was 13 g/dL. The Ht (3 h) was 37.9%, the Lym (3 h) was 77% and the MCH (3 h) was 21.6 pg. The MCHC (3 h) was 34.3%, the MCV (3 h) was 63.2 fL and the Mono (3 h) was 2.8%. The Neu (3 h) was 19%, the PT (3 h) was 13 s and the Plat (3 h) was 121.7 x10_4/uL. The RBC (3 h) was 600 x10_4/ul, the Ret (3 h) was 8% and the WBC (3 h) was 116.5 x10_2/uL. The KIDNEY_L (3 h) was 0.9 g, the KIDNEY_R (3 h) was 1 g and the KIDNEY_TOTAL (3 h) was 1.9 g. For the same molecule, the LIVER (3 h) was 9.4 g, the A/G (3 h) was 1.7 and the ALP (3 h) was 1005.8 IU/L. It also gave an ALT (3 h) of 37.8 IU/L, an AST (3 h) of 66.8 IU/L and a BUN (3 h) of 10.2 mg/dL. It also gave a CRE (3 h) of 0.3 mg/dL, a Ca (3 h) of 10.9 mg/dL and a Cl (3 h) of 104.2 meq/L. It also gave a DBIL (3 h) of 0.2 mg/dL, a GLC (3 h) of 181.4 mg/dL and an IP (3 h) of 8.8 mg/dL. For the same molecule, the K (3 h) was 3.7 meq/L, the LDH (3 h) was 130.4 IU/L and the Na (3 h) was 141.6 meq/L. It also gave a PL (3 h) of 164 mg/dL, an RALB (3 h) of 3.4 g/dL and a TBIL (3 h) of 0.3 mg/dL. It also gave a TC (3 h) of 80.6 mg/dL, a TG (3 h) of 131.4 mg/dL and a TP (3 h) of 5.4 g/dL. The gamma-GTP (3 h) was 0.8 IU/L, the TERMINAL_BW (6 h) was 209.8 g and the APTT (6 h) was 17.8 s. The Bas (6 h) was 0%, the Eos (6 h) was 1% and the Fbg (6 h) was 218 mg/dL. It also gave a Hb (6 h) of 13.3 g/dL, a Ht (6 h) of 38.8% and a Lym (6 h) of 75.6%. For the same molecule, the MCH (6 h) was 22 pg, the MCHC (6 h) was 34.3% and the MCV (6 h) was 64.2 fL. The Mono (6 h) was 3%, the Neu (6 h) was 20% and the PT (6 h) was 13 s. The Plat (6 h) was 135.7 x10_4/uL, the RBC (6 h) was 604.8 x10_4/ul and the Ret (6 h) was 8%. The WBC (6 h) was 100.3 x10_2/uL, the KIDNEY_L (6 h) was 0.9 g and the KIDNEY_R (6 h) was 0.9 g. The KIDNEY_TOTAL (6 h) was 1.9 g, the LIVER (6 h) was 9.1 g and the A/G (6 h) was 1.8. For the same molecule, the ALP (6 h) was 1063.4 IU/L, the ALT (6 h) was 38.6 IU/L and the AST (6 h) was 70.8 IU/L. It also gave a BUN (6 h) of 10 mg/dL, a CRE (6 h) of 0.4 mg/dL and a Ca (6 h) of 10.8 mg/dL. It also gave a Cl (6 h) of 103.4 meq/L, a DBIL (6 h) of 0.094 mg/dL and a GLC (6 h) of 200.4 mg/dL. It also gave an IP (6 h) of 9.7 mg/dL, a K (6 h) of 4 meq/L and an LDH (6 h) of 179.4 IU/L. It also gave a Na (6 h) of 141 meq/L, a PL (6 h) of 148.4 mg/dL and an RALB (6 h) of 3.4 g/dL. It also gave a TBIL (6 h) of 0.2 mg/dL, a TC (6 h) of 80.8 mg/dL and a TG (6 h) of 48.6 mg/dL. For the same molecule, the TP (6 h) was 5.4 g/dL, the gamma-GTP (6 h) was 1.6 IU/L and the TERMINAL_BW (9 h) was 207.5 g. For the same molecule, the APTT (9 h) was 18.1 s, the Bas (9 h) was 0% and the Eos (9 h) was 1%. For the same molecule, the Fbg (9 h) was 222.6 mg/dL, the Hb (9 h) was 13.2 g/dL and the Ht (9 h) was 38.8%. For the same molecule, the Lym (9 h) was 74.8%, the MCH (9 h) was 21.4 pg and the MCHC (9 h) was 34.1%. For the same molecule, the MCV (9 h) was 62.9 fL, the Mono (9 h) was 2.2% and the Neu (9 h) was 22%. For the same molecule, the PT (9 h) was 13.3 s, the Plat (9 h) was 123.9 x10_4/uL and the RBC (9 h) was 617.8 x10_4/ul. For the same molecule, the Ret (9 h) was 7.5%, the WBC (9 h) was 96 x10_2/uL and the KIDNEY_L (9 h) was 1 g. The KIDNEY_R (9 h) was 0.9 g, the KIDNEY_TOTAL (9 h) was 1.9 g and the LIVER (9 h) was 8.6 g. For the same molecule, the A/G (9 h) was 1.7, the ALP (9 h) was 994.6 IU/L and the ALT (9 h) was 34.4 IU/L. For the same molecule, the AST (9 h) was 64.2 IU/L, the BUN (9 h) was 9.8 mg/dL and the CRE (9 h) was 0.3 mg/dL. For the same molecule, the Ca (9 h) was 10.4 mg/dL, the Cl (9 h) was 103.6 meq/L and the DBIL (9 h) was 0.078 mg/dL. The GLC (9 h) was 199.6 mg/dL, the IP (9 h) was 10.3 mg/dL and the K (9 h) was 3.9 meq/L. The LDH (9 h) was 101 IU/L, the Na (9 h) was 142 meq/L and the PL (9 h) was 138.2 mg/dL. For the same molecule, the RALB (9 h) was 3.4 g/dL, the TBIL (9 h) was 0.1 mg/dL and the TC (9 h) was 72.6 mg/dL. It also gave a TG (9 h) of 48 mg/dL, a TP (9 h) of 5.4 g/dL and a gamma-GTP (9 h) of 1.2 IU/L. For the same molecule, the TERMINAL_BW (24 h) was 224.8 g, the APTT (24 h) was 19.6 s and the Bas (24 h) was 0%. The Eos (24 h) was 1%, the Fbg (24 h) was 222.4 mg/dL and the Hb (24 h) was 13.4 g/dL. It also gave a Ht (24 h) of 40.6%, a Lym (24 h) of 77.6% and an MCH (24 h) of 21.5 pg. For the same molecule, the MCHC (24 h) was 33.1%, the MCV (24 h) was 64.8 fL and the Mono (24 h) was 3.2%. The Neu (24 h) was 17.4%, the PT (24 h) was 13.1 s and the Plat (24 h) was 117.6 x10_4/uL. The RBC (24 h) was 626.6 x10_4/ul, the Ret (24 h) was 7.2% and the WBC (24 h) was 107.9 x10_2/uL. The KIDNEY_L (24 h) was 1 g, the KIDNEY_R (24 h) was 1 g and the KIDNEY_TOTAL (24 h) was 2 g. For the same molecule, the LIVER (24 h) was 10.8 g, the A/G (24 h) was 1.5 and the ALP (24 h) was 926.8 IU/L. The ALT (24 h) was 41.8 IU/L, the AST (24 h) was 69.4 IU/L and the BUN (24 h) was 14.4 mg/dL. For the same molecule, the CRE (24 h) was 0.4 mg/dL, the Ca (24 h) was 11 mg/dL and the Cl (24 h) was 103.4 meq/L. For the same molecule, the DBIL (24 h) was 0.1 mg/dL, the GLC (24 h) was 215.8 mg/dL and the IP (24 h) was 8.5 mg/dL. The K (24 h) was 4.2 meq/L, the LDH (24 h) was 146.6 IU/L and the Na (24 h) was 141.8 meq/L. It also gave a PL (24 h) of 136.4 mg/dL, an RALB (24 h) of 3.3 g/dL and a TBIL (24 h) of 0.2 mg/dL. It also gave a TC (24 h) of 71 mg/dL, a TG (24 h) of 95 mg/dL and a TP (24 h) of 5.5 g/dL. The gamma-GTP (24 h) was 1.4 IU/L.
